Source: patent US20260306460A1, “COMPOSITION FOR REMOVING AND INHIBITING SENESCENT CELLS, AND USES THEREOF” (LIFECEUTIX CO., LTD., priority 2023, published 2026)

Experiments:
Splnocyte = conditions: cited from earlier work
[1] = test system: naturally aged C57BL6J mice; assay: Geriatric depression and anxiety in aged mice, Example 21-8; assay type: in vivo, mouse; conditions: aged mice
From the text: The amount of senescent-associated secretory factor (SASP) in serum and tissues collected from mice of Examples 21-5 and 21-6 was reduced by treatment with LX-5701, LX-2101, or LX-2102. It was confirmed that removing senescent cells, which increase with aging in mice, and effectively reducing the amount of senescent-associated secretory factor (SASP) can improve symptoms of geriatric depression and anxiety.

senescent foreskin cells = assay: Survival of senescent human cells treated with supernatant (secreted fluid) from death-induced cells, Example 13; assay type: cell-based; conditions: senescent treated cells, 3 days; for viability at 30 µM: Homo sapiens, 72 h
[2] = test system: obesity-induced aged C57BL6J mice; assay: Anxiety, depression, lethargy (open field test) in obesity-aged mice, Example 23-4, Table 44; assay type: in vivo, mouse; conditions: obesity-aged mice
Method: 15-week-old male C57BL6J mice (The Jackson Laboratory) were induced to obesity by a high-fat diet using the same method as in Example 9-1 WO2023-085787 A1. After acclimation to the experimental environment for one week, the mice were randomly assigned to experimental and control groups. […] LX-3002 was mixed in distilled water with 4% DMSO, 30% PEG300, and 5% Tween80 and administered orally at a concentration of 10 mg/kg daily for 21 days. LX-5701 was mixed in PBS and administered orally at a concentration of 360 mg/kg daily for 21 days. LX-6807 was mixed in saline and administered intraperitoneally at a concentration of 1 mg/kg daily for 21 days. The control group received only the solution in the same volume. After the end of drug administration, the methods described in each example below were performed.
It was determined that anxiety and depression caused by obesity are not causally related to increased body weight, but rather are caused by the accumulation of senescent cells. Accordingly, an activity assessment (open field test) was performed using the same method as in Example 7-7 of WO2023-085787 A1 to analyze lethargy caused by anxiety and depression caused by obesity in mice. The table below quantitatively represents activity, a criterion for assessing lethargy due to anxiety and depression, under conditions in which aging was induced by obesity and the test compound was not administered or was administered. The activity assessment after obesity-induced aging was calculated as 100% and compared with the activity assessment after test compound treatment.

senescent A549 cells = assay: Viability of senescent A549 cancer cells (CellTiter-Glo), Example 12; assay type: cell-based, human; conditions: Homo sapiens, A549, 0 μM = 100, read-out: Survival
Method: (§2) Cells were treated with doxorubicin or control (DMSO) and cultured.
Cancer cells in which aging was induced by treatment with doxorubicin were treated with the test compound at designated concentrations and measured using the CellTiter-Glo Luminescent Cell Viability Assay (Promega).

[3] = test system: HMGN1 secreted from senescent A549 cells; assay: HMGN1 secretion (ELISA) from senescent A549 cancer cells, Example 12; assay type: cell-based, human; conditions: senescent untreated = 100%; 30 μM; 90 μM for LX-305, 905, 1302, 1601, 1603, 2003, 2702, 2901, 3106; 270 μM for LX-1103, 2005, 2007;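 also: A549 cells made senescent by doxorubicin exposure, with DMSO-treated cells serving as the non-senescent control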
Method: as §2

[4] = test system: non-senescent proliferating human cells; assay: Effect on non-senescent (proliferating) human cells; assay type: cell-based; conditions: normally proliferating foreskin cells; 30 μM, 3 days
From the text: Based on the results of Example 10 of WO2023-085787 A1, compounds that induce the death of senescent cells through a mechanism similar to LX-112, unlike existing senescent cell removers such as ABT-263, were screened based on HMGN1. […] The following test compounds were synthesized by and purchased from Medchemexpress, Selleckchem, Cayman, Medkoo, Sigma, Molport, Enzo, TCI, Santa Cruz, REONSIMI, Abcam, Alfa Aesar, APExBIO, BOCSCI, Merck, Thermo Fisher Scientific, R&D Systems, ChemFaces, Aobious, etc. […] In cells in which senescence was not induced by treatment with the control group (DMSO), the amount of HMGN1 above the effective value (sensitivity: 35 pg/ml), analysis limit, was not detected in both untreated and treated conditions with the test compound. On the other hand, in cells where senescence was induced by treatment with doxorubicin, the amount of HMGN1 was measured at 80 to 90 pg/ml. […]
(§1) After 3 days, cell viability was measured using CellTiter-Glo Luminescent Cell Viability Assay (Promega) or light microscopy.
Using the same method as Example 11, compounds that induce senescent cell death through a mechanism similar to that of LX-112 (ethaselen (1,2-[bis(1,2-benzisoselenazolone-3 (2H)-ketone)]ethane)) were screened based on HMGN1 and others. […] On the other hand, in cells senescent with doxorubicin, an amount of HMGN1 of […] was measured. […]

[5] = test system: proliferating foreskin cells; assay: Survival of proliferating human cells treated with supernatant (secreted fluid) from death-induced cells, Example 13; assay type: cell-based; conditions: 3 days; for viability at 30 µM: Homo sapiens, 72 h
Method: as §1
After treating cells with the test compound at a high concentration that induces the death of most cells in both non-senescence-induced and senescence-induced cells, the cells were washed three times with PBS to remove the test compound, and replaced with fresh medium and cultured for an additional 3 hours at the time when the compound has entered into the cell but has not yet induced cell death (approximately 1 to 3 hours after compound treatment). During this additional culture, by checking with an optical microscope, etc., the medium supernatants containing secreted fluid from normally proliferating and senescent cells in which cell death was induced were obtained. The obtained medium supernatant was replaced with the medium of normally proliferating and senescent cells, respectively, and cell survival rate was measured after 3 days.

senescent human cells = assay: Viability of doxorubicin-induced senescent human cells (CellTiter-Glo), Example 11; assay type: cell-based
Method: Cells in which senescence was induced by treatment with doxorubicin were treated with the test compound at designated concentrations and measured using the CellTiter-Glo Luminescent Cell Viability Assay (Promega).

[6] = supernatant from death-induced proliferating cells
[7] = supernatant from death-induced senescent cells

CC(O)[C@@H]1NC(=O)COCCOCCNC(=O)[C@H](C(C)O)NC(=O)N[C@@H](C(C)O)C(=O)NNC1=O (stereo partly drawn) [Cyclic compound 1]
Splnocyte proliferation recovery (Splnocyte): Splnocyte proliferation recovery 91%

CC(C)c1onc(C(=O)N2CCN(C(c3ccccc3)c3ccccc3)CC2)c1[N+](=O)[O-] [LX-401]
amount of SASP, p16, SA-β-gal, lipofuscin [1]: reduced | symptoms of geriatric depression and anxiety [1]: improved | viability at 30 µM (senescent foreskin cells; [6]): 48.2% | viability at 30 µM (senescent foreskin cells; [7]): 42.2% | Survival (senescent foreskin cells; supernatant from No Cells): 101.1 (±5.5) % | geriatric depression [2]: similarly improving geriatric depression | viability at 1.1 µM (senescent A549 cells; 1.1 μM): 89.7% | viability at […] (senescent A549 cells; 3.3 μM): 68.6% | viability at 10 µM (senescent A549 cells; 10 μM): 42.1% | viability at 30 µM (senescent A549 cells; 30 μM): 16.8% | HMGN1 [3]: 277% | induced death of cells [4]: induced the death of most cells | viability at 30 µM [5, 6]: 88.1% | viability at 30 µM [5, 7]: 95.1% | Survival ([5]; supernatant from No Cells): 97.9 (±7.2) % | viability at 1.1 µM (senescent human cells; Homo sapiens, 1.1 μM, 0 μM = 100, read-out: Survival): 20.4% | viability at […] (senescent human cells; Homo sapiens, 3.3 μM, 0 μM = 100, read-out: Survival): 12.4% | viability at 10 µM (senescent human cells; Homo sapiens, 10 μM, 0 μM = 100, read-out: Survival): 10.6% | viability at 30 µM (senescent human cells; Homo sapiens, 30 μM, 0 μM = 100, read-out: Survival): 7.8% | induced death of cells (senescent human cells; senescent foreskin cells, 30 μM, 3 days): induced the death of most cells
